Publication PMC11971087, “Unveiling the in vitro activity of extracted Euphorbia trigona via Supercritical Fluid Extraction against pathogenic yeasts, obesity, cancer, and its wound healing properties” (Bioresources and Bioprocessing, 2025)
In brackets after ≈: the same amount, converted by molar mass.

Biological target: T1, lipase
T1 construct: gene PNLIP; pig pancreas is only the usual preparation
Assay: 4-nitrophenyl butyrate hydrolysis, absorbance at […] nm
Type: biochemical
Conditions: potassium phosphate pH 7.0, 37 °C, 10 min, standard drug, covalent

- IC50: 6.4 µg/mL (≈ 12.9 µM)
SMILES: CCCCCCCCCCC[C@@H](C[C@@H]1OC(=O)[C@H]1CCCCCC)OC(=O)[C@H](CC(C)C)NC=O [Orlistat]
